How the values were obtained:
Androgen receptor [1] = target: T1, Androgen receptor (Homo sapiens, UniProt P10275); conditions: cv-1
T1 sequence (P10275 whole entry): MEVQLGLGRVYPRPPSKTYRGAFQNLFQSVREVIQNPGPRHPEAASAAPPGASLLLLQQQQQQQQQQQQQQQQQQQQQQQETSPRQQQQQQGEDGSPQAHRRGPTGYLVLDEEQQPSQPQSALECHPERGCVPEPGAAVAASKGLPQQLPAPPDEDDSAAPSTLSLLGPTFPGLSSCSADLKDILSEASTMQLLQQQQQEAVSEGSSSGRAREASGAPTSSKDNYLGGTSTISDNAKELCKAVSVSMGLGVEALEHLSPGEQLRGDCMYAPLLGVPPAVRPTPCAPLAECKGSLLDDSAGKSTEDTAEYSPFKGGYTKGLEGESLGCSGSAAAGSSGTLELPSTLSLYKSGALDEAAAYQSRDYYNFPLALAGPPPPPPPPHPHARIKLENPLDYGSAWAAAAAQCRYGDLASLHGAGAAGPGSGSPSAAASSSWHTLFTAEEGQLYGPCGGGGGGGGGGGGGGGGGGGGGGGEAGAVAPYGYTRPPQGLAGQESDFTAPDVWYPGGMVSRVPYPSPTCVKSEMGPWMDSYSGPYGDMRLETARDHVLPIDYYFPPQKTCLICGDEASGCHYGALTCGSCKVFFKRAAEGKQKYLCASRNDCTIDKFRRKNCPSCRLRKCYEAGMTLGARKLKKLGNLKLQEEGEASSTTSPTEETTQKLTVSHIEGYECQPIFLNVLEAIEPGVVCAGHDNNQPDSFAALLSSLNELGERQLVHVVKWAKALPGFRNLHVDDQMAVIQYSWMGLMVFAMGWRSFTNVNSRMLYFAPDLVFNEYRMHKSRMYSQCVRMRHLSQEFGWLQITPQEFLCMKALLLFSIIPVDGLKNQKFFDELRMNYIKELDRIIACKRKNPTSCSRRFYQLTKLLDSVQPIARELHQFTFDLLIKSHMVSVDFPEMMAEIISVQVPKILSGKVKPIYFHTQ
Description: Agonistic activity against human androgen receptor (hAR) in co-transfected CV-1 cell

[2] = target: T2, Mineralocorticoid receptor (Homo sapiens) (UniProt P08235); test: Antagonistic activity against hMR in co-transfected CV-1 cell; format: functional, cell-based
T2 sequence (whole entry): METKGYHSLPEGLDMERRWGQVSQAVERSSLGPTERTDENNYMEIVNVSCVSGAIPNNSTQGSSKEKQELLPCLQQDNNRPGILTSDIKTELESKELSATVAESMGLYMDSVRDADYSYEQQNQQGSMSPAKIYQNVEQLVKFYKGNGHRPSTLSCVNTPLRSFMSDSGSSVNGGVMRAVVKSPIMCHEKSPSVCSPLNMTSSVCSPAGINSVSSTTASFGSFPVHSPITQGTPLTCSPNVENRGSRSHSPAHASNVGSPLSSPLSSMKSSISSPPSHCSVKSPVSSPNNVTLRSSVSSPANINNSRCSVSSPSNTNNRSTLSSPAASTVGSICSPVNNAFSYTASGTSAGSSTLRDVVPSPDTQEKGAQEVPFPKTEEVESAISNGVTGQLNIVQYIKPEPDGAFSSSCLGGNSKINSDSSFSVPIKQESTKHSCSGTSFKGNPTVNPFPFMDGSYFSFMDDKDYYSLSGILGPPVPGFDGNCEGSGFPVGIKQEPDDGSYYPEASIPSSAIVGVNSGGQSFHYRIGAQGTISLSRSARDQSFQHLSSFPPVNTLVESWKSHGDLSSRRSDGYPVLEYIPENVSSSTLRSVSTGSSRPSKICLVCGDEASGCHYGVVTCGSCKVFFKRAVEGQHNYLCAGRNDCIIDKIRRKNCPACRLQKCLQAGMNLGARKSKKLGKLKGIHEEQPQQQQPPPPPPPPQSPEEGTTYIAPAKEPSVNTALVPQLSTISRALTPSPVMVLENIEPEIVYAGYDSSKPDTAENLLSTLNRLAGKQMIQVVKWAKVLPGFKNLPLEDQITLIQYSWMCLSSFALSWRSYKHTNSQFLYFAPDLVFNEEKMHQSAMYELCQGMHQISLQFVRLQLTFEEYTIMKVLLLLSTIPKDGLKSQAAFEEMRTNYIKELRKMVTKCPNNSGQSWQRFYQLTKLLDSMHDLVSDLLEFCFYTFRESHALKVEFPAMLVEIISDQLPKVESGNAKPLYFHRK

Androgen receptor [3] = target: T1, Androgen receptor; test: Binding affinity against Androgen receptor transfected into COS cells
Progesterone receptor = target: T3, Progesterone receptor (Homo sapiens, UniProt P06401); test: Antagonistic activity against hPR in co-transfected CV-1 cell; format: functional, cell-based
T3 sequence (P06401 whole entry): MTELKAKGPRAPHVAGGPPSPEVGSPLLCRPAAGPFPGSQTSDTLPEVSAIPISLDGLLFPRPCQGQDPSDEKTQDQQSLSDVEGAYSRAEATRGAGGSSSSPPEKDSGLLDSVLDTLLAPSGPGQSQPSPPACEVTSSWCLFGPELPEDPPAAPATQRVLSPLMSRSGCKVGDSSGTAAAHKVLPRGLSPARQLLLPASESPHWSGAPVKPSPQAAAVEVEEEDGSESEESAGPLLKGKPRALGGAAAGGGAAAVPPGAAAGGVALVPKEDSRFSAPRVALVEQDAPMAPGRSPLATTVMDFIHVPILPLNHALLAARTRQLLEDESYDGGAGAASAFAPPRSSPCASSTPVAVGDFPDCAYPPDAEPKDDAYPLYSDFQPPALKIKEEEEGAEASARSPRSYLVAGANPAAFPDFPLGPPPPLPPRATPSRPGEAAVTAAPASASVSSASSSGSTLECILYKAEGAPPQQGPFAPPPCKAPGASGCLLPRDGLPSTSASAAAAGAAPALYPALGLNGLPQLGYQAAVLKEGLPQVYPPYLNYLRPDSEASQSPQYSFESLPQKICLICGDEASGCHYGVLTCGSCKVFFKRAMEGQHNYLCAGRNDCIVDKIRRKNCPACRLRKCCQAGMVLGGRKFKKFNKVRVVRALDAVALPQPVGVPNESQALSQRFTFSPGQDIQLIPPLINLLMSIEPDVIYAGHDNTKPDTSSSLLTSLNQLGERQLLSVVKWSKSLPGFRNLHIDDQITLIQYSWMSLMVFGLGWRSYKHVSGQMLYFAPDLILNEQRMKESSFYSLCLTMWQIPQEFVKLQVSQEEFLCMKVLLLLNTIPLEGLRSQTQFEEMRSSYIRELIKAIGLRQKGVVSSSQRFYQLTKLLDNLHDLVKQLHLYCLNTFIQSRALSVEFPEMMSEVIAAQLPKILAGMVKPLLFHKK

Structure (SMILES) | EC50 (Androgen receptor [1]) | Efficacy [2] | Ki (Androgen receptor [3]) | IC50 (Progesterone receptor)
CN1c2cc3c(cc2[C@H]2CCCC[C@H]21)c(C(F)(F)F)cc(=O)n3C | Not Active | < 20% | 10 nM | 1000 nM
C[C@H]1CC[C@H]2Nc3cc4c(cc3[C@H]2C1)c(C(F)(F)F)cc(=O)n4C | Not Active | < 20% | 94 nM | 380 nM
CC1(C)CCC[C@]2(C)c3cc4c(C(F)(F)F)cc(O)nc4cc3N[C@H]12 | Not Active | 77% | 77 nM | 430 nM
